The experiment concerns PKC mediated IL-2 production. The experiment can be described thus: IL-2 ELISA, human primary T cell, anti CD3+CD28+ (whole cell functional assay). Type of experiment: cell-based. As to the method:
Human primary T cells were prepared as follows. Fresh PBMC's from All Cells (Cat # PB002) were re-suspended in RPMI (RPMI-1640 with L-Glutamine; Mediatech, Inc., Herndon Va., cat. #10-040-CM) with 10% FBS and seeded into flasks and incubated at 37° C. for 2 hours to allow the monocytes to adhere. The non-adherent cells were then centrifuged and re-suspended in RPMI medium containing 40 U/ml IL2 and seeded into a flask pre-coated with 1 μg/ml aCD3 and 5 ug/ml aCD28 (Anti-Human CD3, BD Pharmingen Catalog #555336, Anti-Human CD28, Beckman Coulter Catalog # IM1376). The cells were stimulated for 3-4 days, then transferred to a fresh flask and maintained in RPMI (RPMI-1640 with L-Glutamine; Mediatech, Inc., Herndon Va., cat. #10-040-CM) with 10% FBS and 40 U/ml IL-2.
(§1) Human primary T cells (100,000 cells per well) were pre-incubated with or without test compound in RPMI-1640 with L-Glutamine and 10% FBS for 1 hour at 37° C. Cells were then stimulated by transferring them to round-bottom 96-well plates pre-coated with 1 μg/ml αCD3 and 5 μg/ml αCD28. For counter assay, cells were instead stimulated by adding 8× stock solutions of PMA and ionomycin in RPMI-1640 with L-Glutamine and 10% FBS (for final concentrations of 0.5 ng/ml PMA and 0.1 μM ionomycin, both from Calbiochem). Cells were incubated at 37° C. for 24 hours before 100 μL supernatants were harvested for quantification of IL-2 by ELISA using Human IL-2 Duoset ELISA Kit from R and D Systems, Cat. # DY202E.
Compounds 1-90 were tested in a whole cell functional assay for PKC mediated IL-2 production as follows. Human primary T cell isolation and culture: Human primary T cells were prepared as follows. Whole blood was obtained from a healthy volunteer, mixed 1:1 with PBS, layered on to Ficoll Hypaque (Amersham Pharmacia Biotech, Piscataway, N.J., Catalog #17-1440-03) in 2:1 blood/PBS:ficoll ratio and centrifuged for 30 minutes at 4° C. at 1750 rpm. The cells at the serum: ficoll interface were recovered and washed twice with 5 volumes of PBS. These freshly isolated human peripheral blood mononuclear cells were cultured in Yssel's medium containing 40 U/ml IL2 in a flask pre-coated with 1 μg/ml αCD3 and 5 μg/ml αCD28 (Anti-Human CD3, BD Pharmingen Catalog #555336, Anti-Human CD28, Beckman Coulter Catalog # IM1376). The cells were stimulated for 3-4 days, then transferred to a fresh flask and maintained in RPMI (RPMI-1640 with L-Glutamine; Mediatech, Inc., Herndon Va., cat. #10-040-CM) with 10% FBS and 40 U/ml IL-2. The primary T-cells were then washed twice with PBS to remove the IL-2.
as §1, with “Primary T cell stimulation and IL2 ELISA: Human primary” for “Human primary”, “compound in Yssel's medium for 1” for “compound in RPMI-1640 with L-Glutamine and 10% FBS for 1”, “ionomycin in Yssels (for final” for “ionomycin in RPMI-1640 with L-Glutamine and 10% FBS (for final”, “and 0.1 uM ionomycin, both” for “and 0.1 μM ionomycin, both”
On the technique in general: An ELISA detects its analyte on a solid surface through an enzyme-linked reagent.

The mark [1] stands for this setting: Homo sapiens, T-cell, 24 h, IL-2 production, human primary T cells stimulated with αCD3 and αCD28, 24 hours, IL-2 by ELISA, read-out: EC50.
Setting [2] is: Homo sapiens, T-cell, human primary T cells stimulated with αCD3 and αCD28, IL-2 by ELISA, read-out: EC50 (blocked IL-2 production).
[3] abbreviates: IL-2 production, human primary T cells stimulated with αCD3 and αCD28, 24 hours, IL-2 by ELISA, read-out: EC50.

What is called EC50 is the concentration that produces a half-maximal response.

Read-outs that look alike come from different tables or passages of the source. A value given as a limit tells only on which side of the number the result lay.

For `CC(C)Oc1cc(F)c(Nc2ncc(F)c(N[C@@H]3C[C@@H]4CCCN4C(C)(C)C3)n2)cc1-n1nnn(C)c1=O` [Compound 23, 1-(5-(4-((7R,8aS)-5,5-dimethyl-octahydroindolizin-7-ylamino)-5-fluoropyrimidin-2-ylamino)-4-fluoro-2-isopropoxyphenyl)-4-methyl-1H-tetrazol-5(4H)-one], the EC50 was less than 0.1 µM under setting [1] and less than 10 µM under setting [2]. Consider `Cn1nnn(-c2cc(Nc3ncc(F)c(N[C@@H]4C[C@@H]5C[C@H](F)CN5C(C)(C)C4)n3)c(F)cc2C2CC2)c1=O` [Compound 67, 1-(5-(4-((2S,7R,8aR)-2-fluoro-octahydro-5,5-dimethylindolizin-7-ylamino)-5-fluoropyrimidin-2-ylamino)-2-cyclopropyl-4-fluorophenyl)-4-methyl-1H-tetrazol-5(4H)-one], for which the EC50 runs as follows: under setting [1], less than 0.5 µM; under setting [2], less than 10 µM. Consider `CC(=O)N(C)c1cc(Nc2ncc(F)c(NC3CC(C)(C)N4CCCC4C3C)n2)c(F)cc1C1CC1` (stereo not drawn) [Compound 73], for which, under setting [3], the EC50 was less than 0.5 µM. Turning to `CC1C(Nc2nc(Nc3cc(OC(F)F)c(C4CC4)cc3F)ncc2F)CC(C)(C)N2CCCC12` (stereo not drawn) [Compound 75], under setting [3], the EC50 was less than 0.5 µM.

As to `CC1C(Nc2nc(Nc3cc(-n4nnn(C)c4=O)c(C4CC4)cc3F)ncc2F)CC(C)(C)N2CCCC12` (single isomer, unassigned) [Compound 69, 1-(5-(5-Fluoro-4-(octahydro-5,5,8-trimethylindolizin-7-ylamino)pyrimidin-2-ylamino)-2-cyclopropyl-4-fluorophenyl)-4-methyl-1H-tetrazol-5(4H)-one], the EC50 under setting [1] was less than 1 µM and the EC50 under setting [2] is less than 10 µM. As for `Cc1ccc(Nc2ncc(F)c(N[C@H]3C[C@@H]4CC(F)(F)CN4C(C)(C)C3)n2)cc1C#N` [Compound 44, (4-((7S,8aR)-2,2-difluoro-octahydro-5,5-dimethylindolizin-7-ylamino)-5-fluoropyrimidin-2-ylamino)-2-methylbenzonitrile], the EC50 under setting [1] was less than 10 µM and the EC50 under setting [2] was less than 10 µM. Regarding `CC1(C)CC(Nc2nc(Nc3ccc(OC4CCOCC4)c(C#N)c3)ncc2F)CC2CCCN21` (single isomer, unassigned) [Compound 41, 5-(5-fluoro-4-(octahydro-5,5-dimethylindolizin-7-ylamino)pyrimidin-2-ylamino)-2-(tetrahydro-2H-pyran-4-yloxy)benzonitrile], the EC50 by setting is: under setting [1], less than 0.5 µM; under setting [2], less than 10 µM. With `COc1cc(Nc2ncc(F)c(NC3CC4CCCN4C(C)(C)C3)n2)cc(-n2nnnc2C)c1` (stereo not drawn) [Compound 12, (R/S, S/R, R/R, S/S)-5-fluoro-N4-(octahydro-5,5-dimethylindolizin-7-yl)N2-(3-methoxy-5-(5-methyl-1H-tetrazol-1-yl)phenyl)pyrimidine-2,4-diamine], the 50% effective concentration (EC50) under setting [3] was less than 1 µM. For `CC(C)N1CCC(Oc2ccc(Nc3ncc(F)c(NC4CC5CCCN5C(C)(C)C4)n3)cc2OC(F)F)CC1` (stereo not drawn) [Compound 6, (R/S, S/R, R/R, S/S)—N^2-(4-(1-isopropylpiperidin-4-yloxy)-3-(difluoromethoxy)phenyl)-5-fluoro-N^4-(octahydro-5,5-dimethylindolizin-7-yl)pyrimidine-2,4-diamine], the EC50 under setting [3] was less than 0.5 µM. Still for that read-out and setting: with `Cc1ncc(Nc2ncc(F)c(NC3CC4CCCN4C(C)(C)C3)n2)cc1-n1nnnc1C` (stereo not drawn) [Compound 15] the figure was less than 0.5 µM.

Turning to `CC1(C)CC(Nc2nc(Nc3ccc(O[C@@H]4CCOC4)c(C#N)c3)ncc2F)CC2CCCN21` (single isomer, unassigned) [Compound 58], the EC50 under setting [2] is less than 10 µM and the EC50 under setting [3] was less than 10 µM. Regarding `C[C@H](O)COc1cc(F)c(Nc2ncc(C#N)c(N[C@@H]3C[C@@H]4CCCN4C(C)(C)C3)n2)cc1-n1nnn(C)c1=O` [Compound 79, 4-((7R,8aS)-octahydro-5,5-dimethylindolizin-7-ylamino)-2-(4-((S)-2-hydroxypropoxy)-2-fluoro-5-(4,5-dihydro-4-methyl-5-oxotetrazol-1-yl)phenylamino)pyrimidine-5-carbonitrile], the EC50 reads like this: under setting [1], less than 0.1 µM; under setting [2], less than 10 µM. Regarding `Cn1nnn(-c2cc(Nc3ncc(F)c(N[C@@H]4C[C@@H]5CC(F)(F)CN5C(C)(C)C4)n3)c(F)cc2C2CC2)c1=O` [Compound 45, 1-(5-(4-((7R,8aR)-2,2-difluoro-octahydro-5,5-dimethylindolizin-7-ylamino)-5-fluoropyrimidin-2-ylamino)-2-cyclopropyl-4-fluorophenyl)-4-methyl-1H-tetrazol-5(4H)-one], the EC50 runs as follows: under setting [1], less than 10 µM; under setting [2], less than 10 µM. `COc1cc(F)c(Nc2ncc(F)c(N[C@@H]3C[C@@H]4CCCN4C(C)(C)C3)n2)cc1-n1nnn(C)c1=O` [Compound 22, 1-(5-(4-((7R,8aS)-5,5-dimethyl-octahydroindolizin-7-ylamino)-5-fluoropyrimidin-2-ylamino)-4-fluoro-2-methoxyphenyl)-4-methyl-1H-tetrazol-5(4H)-one]: the EC50 was less than 0.5 µM under setting [1] and less than 10 µM under setting [2]. With `Cn1nnn(-c2cc(Nc3ncc(F)c(NC4CCN5CCCC5C4)n3)c(F)cc2C2CC2)c1=O` (racemic) [Compound 27, (±)-1-(5-(5-fluoro-4-(octahydroindolizin-7-ylamino)pyrimidin-2-ylamino)-2-cyclopropyl-4-fluorophenyl)-4-methyl-1H-tetrazol-5(4H)one], the EC50 was less than 10 µM under setting [1] and less than 10 µM under setting [2]. Take `CC1(C)Oc2ccc(Nc3ncc(F)c(NC4CC5CCCN5C(C)(C)C4)n3)cc2-n2nnnc21` (stereo not drawn) [Compound 4, N2-(4,4-dimethyl-4H-benzo[b]tetrazolo[1,5-d][1,4]oxazin-8-yl)-5-fluoro-N4-(octahydro-5,5-dimethylindolizin-7-amine)pyrimidine-2,4-diamine]: under setting [3], the EC50 was less than 10 µM.

Regarding `CC1(C)Oc2ccc(Nc3ncc(F)c(NC4CC5CCCN5C(C)(C)C4)n3)cc2-n2nnnc21` (stereo not drawn) [Compound 3, N2-(4,4-dimethyl-4H-benzo[b]tetrazolo[1,5-d][1,4]oxazin-8-yl)-5-fluoro-N4-(octahydro-5,5-dimethylindolizin-7-amine)pyrimidine-2,4-diamine], the EC50 under setting [3] is less than 1 µM. Regarding `Cn1nnn(-c2cc(Nc3ncc(F)c(N[C@@H]4C[C@@H]5C[C@@H](F)CN5C(C)(C)C4)n3)c(F)cc2C2CC2)c1=O` [Compound 64, 1-(5-(4-((2R,7R,8aR)-2-fluoro-octahydro-5,5-dimethylindolizin-7-ylamino)-5-fluoropyrimidin-2-ylamino)-2-cyclopropyl-4-fluorophenyl)-4-methyl-1H-tetrazol-5(4H)-one], the EC50 was less than 0.5 µM under setting [1] and less than 10 µM under setting [2].

Regarding `Fc1cc(C2CC2)c(-n2cnnn2)cc1Nc1ncc(F)c(NC2CCN3CCCC3C2)n1` (racemic) [Compound 24, (±)-N^2-(4-cyclopropyl-2-fluoro-5-(1H-tetrazol-1-yl)phenyl)-5-fluoro-n^4-(octahydroindolizin-7-yl)pyrimidine-2,4-diamine], the EC50 reads like this: under setting [1], less than 0.5 µM; under setting [2], less than 10 µM.

For the compound `Cn1nnn(-c2cc(Nc3ncc(C#N)c(N[C@@H]4C[C@@H]5CCCN5C(C)(C)C4)n3)ccc2OC(C)(C)CO)c1=O` [Compound 83, 4-((7R,8aS)-octahydro-5,5-dimethylindolizin-7-ylamino)-2-(4-(1-hydroxy-2-methylpropan-2-yloxy)-3-(4,5-dihydro-4-methyl-5-oxotetrazol-1-yl)phenylamino)pyrimidine-5-carbonitrile], the EC50 is, setting by setting: under setting [1], less than 0.1 µM; under setting [2], less than 10 µM.

Values taken from patent publication US10792282B2, “Protein kinase C inhibitors and uses thereof” (Rigel Pharmaceuticals, Inc., priority 2013, dated 2020).
